Experimental data from PMC9101373, “Design of DNA Intercalators Based on 4-Carboranyl-1,8-Naphthalimides: Investigation of Their DNA-Binding Ability and Anticancer Activity” (International Journal of Molecular Sciences, 2022).
Values joined by “and” are separate entries in the source; they are usually repeats but may differ in a detail not shown here. Equal values may be shown once.

Experiments:
HepG2 cells = assay: Analysis of 8-oxo-dG in cellular DNA by HPLC-UV-ED; type: cell-based, human; conditions: HepG2, 24 h; for [8-oxo-dG ± SD] × 10^6, 8-oxo-dG level in cellular DNA: concentration corresponding to total IC50, control 2.88 ± 0.17
Description: We also estimated 8-oxo-dG levels in DNA since 2-deoxyguanosine is most susceptible to oxidation among nucleosides and might serve as an oxidative DNA damage marker within the cells. […] Both compounds generate much higher oxidative disturbance in DNA than mitonafide, resulting in approximately 4- and 6-fold more 8-oxo-dG residues, respectively.
HepG2 cells (1 × 10^6) were seeded onto flasks (25 cm^2) and cultured for 16 h in the EMEM medium (Corning®) supplemented with 10% FBS (Corning®) and antibiotics (Sigma).Subsequently, the cells were treated for 24 h with the tested compounds at a concentration corresponding to their total IC50 values. Next, the cells were trypsinized, rinsed twice with PBS, and pelleted by centrifugation (200× g, 3 min). Total DNA was isolated from the treated cells and untreated control cells using a Genomic mini DNA isolation kit (A&A Biotechnology, Gdynia, Poland) according to the manufacturer′s protocol. The quality of the total DNA was assessed spectrophotometrically.
DNA (1 μg) was dissolved in sodium acetate buffer (10 μL, 40 mM, pH 5.3) containing ZnCl2 (0.1 mM) and digested with nuclease P1 (3 μg). Samples were incubated for 3 h at 37 °C. Subsequently, Tris–HCl (2 μL, 1 M, pH 8.0), alkaline phosphatase (1 U) were added and incubated for 2 h at 37 °C. All DNA hydrolysates were ultrafiltered using cut-off 10,000 Da filter units.
8-Oxo-dG and dG in hydrolysates were determined using HPLC-UV followed by electrochemical detection and ED (Coulochem III Electrochemical Detector, ESA, Inc., Chelmsford, MA, USA). DNA hydrolysates were chromatographed isocratically using ammonium acetate (50 mM pH 5.3)/methanol (93:7, v/v). Detection of dG was performed at 254 nm. Detection of 8-oxo-dG was performed by the electrochemical detector: guard cell + 400 mV, detector 1: +130 mV (as a screening electrode), detector 2: + 350 mV (as a measuring electrode set to sensitivity of 500 nA/V). All results are expressed as the mean ± SD.
To determine 8-oxo-dG levels, guanosine amount was necessary. The total number of 8-oxo-dG residues in the genome was calculated using the unique formula [54].

calf thymus DNA (ct-DNA) = assay: Melting temperature (Tm) measurements of ct-DNA, thermal denaturation; type: binding; conditions: r = [compound]/[ct-DNA] = 0.3; pH 7.0, 20 mM cacodylate buffer; Tm of ct-DNA alone 74 °C
Description: The melting temperature (Tm) of DNA is defined as the temperature at which 50% of the DNA is in form of single strands forming randomly coiled structures. DNA melting is measured by the absorbance of UV light (260 nm) by the DNA solution, where the amount of UV light absorbed is proportional to the fraction of non-bonded base pairs. The majority of DNA-binding small molecules known thus far stabilize duplex DNA against heat denaturation. A high, drug-induced increase in the Tm of DNA is generally viewed as an excellent criterion to select DNA ligands and is a common feature of several anticancer drugs such as intercalators (a significant increase in Tm = 3–8 °C is observed for strong intercalation) and alkylators. The reverse situation (destabilization of DNA to facilitate its denaturation) may be an attractive option to identify therapeutic agents acting on the DNA structure.
Our study conducted Tm measurement to estimate the impact of 1,8-naphthalimides bearing the carborane cluster on DNA stabilization (Table 1, Figures S249–S253, ESI).
The measurements were performed by adding aliquots of DMSO stock solution of the tested compounds to the buffer solution (pH 7.0, 20 mM, cacodylate buffer, DMSO content of the final solution = 0.24–0.36%). The Tm curves were collected at r = 0.3 (r = [compound]/[ct-DNA]) to assure the dominant binding mode. Thermal melting curves were determined by following the absorption change at 260 nm as a function of temperature by using a GBC Cintra10 UV–vis spectrometer (Dandenong, Australia) equipped with a GBC Thermocell Peltier Power Supply (Dandenong, Australia) using a 1 cm path length cell. The absorbance of the samples was monitored at 260 nm from 30 to 90 °C (95 °C for compounds 54–61) with a heating rate of 1 °C/min. Tm values are the midpoints or the transition curves determined from the maximum of the first derivative. The ΔTm values were calculated by subtracting the Tm of the free nucleic acid from the Tm of the sample. Every Tm value reported in this study was average at least three measurements. The error in Tm was 0.5 °C.

## N-[2-(Dimethylamino)ethyl]-4-[(2-(2-(1,2-dicarba-closo-dodecaborane-1-yl)-ethylamino)ethyl)amino]-1,8-naphthalimide [Compound 54]
HepG2 cells
  [8-oxo-dG ± SD] × 10^6, 8-oxo-dG level in cellular DNA: 43.17 ± 0.75 per 10^6 dG
Calf thymus DNA (ct-DNA)
  ΔTm ct-DNA: 7.67 °C

## N-[2-(Dimethylamino)ethyl]-4-[(2-(2-(1,7-dicarba-closo-dodecaborane-1-yl)-ethylamino)ethyl)amino]-1,8-naphthalimide [Compound 55]
HepG2 cells
  [8-oxo-dG ± SD] × 10^6, 8-oxo-dG level in cellular DNA: 74.85 ± 1.38 per 10^6 dG
Calf thymus DNA (ct-DNA)
  ΔTm ct-DNA: 9.67 °C

## N-[2-(Dimethylamino)ethyl]-4-[(6-(2-(1,2-dicarba-closo-dodecaborane-1-yl)-ethylamino)hexyl)amino]-1,8-naphthalimide [Compound 58]
HepG2 cells
  [8-oxo-dG ± SD] × 10^6, 8-oxo-dG level in cellular DNA: 96.58 ± 0.56 per 10^6 dG
Calf thymus DNA (ct-DNA)
  ΔTm ct-DNA: 11.00 °C

## N-[2-(Dimethylamino)ethyl]-4-[(6-(2-(1,7-dicarba-closo-dodecaborane-1-yl)-ethylamino)hexyl)amino]-1,8-naphthalimide [Compound 59]
HepG2 cells
  [8-oxo-dG ± SD] × 10^6, 8-oxo-dG level in cellular DNA: 81.64 ± 0.67 per 10^6 dG
Calf thymus DNA (ct-DNA)
  ΔTm ct-DNA: 8.33 °C

## N-[2-(Pyrrolidin-1-yl)ethyl]-4-[(2-(2-(1,2-dicarba-closo-dodecaborane-1-yl)-ethylamino)ethyl)amino]-1,8-naphthalimide [Compound 56]
HepG2 cells
  [8-oxo-dG ± SD] × 10^6, 8-oxo-dG level in cellular DNA: 52.31 ± 0.51 per 10^6 dG
Calf thymus DNA (ct-DNA)
  ΔTm ct-DNA: 7.67 °C

## N-[2-(Pyrrolidin-1-yl)ethyl]-4-[(2-(2-(1,7-dicarba-closo-dodecaborane-1-yl)-ethylamino)ethyl)amino]-1,8-naphthalimide [Compound 57]
HepG2 cells
  [8-oxo-dG ± SD] × 10^6, 8-oxo-dG level in cellular DNA: 57.54 ± 0.73 per 10^6 dG
Calf thymus DNA (ct-DNA)
  ΔTm ct-DNA: 11.00 °C

## N-[2-N-Pyrrolidinyl)ethyl]-4-[(6-(2-(1,2-dicarba-closo-dodecaborane-1-yl)-ethylamino)hexyl)amino]-1,8-naphthalimide [Compound 60]
HepG2 cells
  fold increase in number of 8-oxo-dG residues per 10^6 dG as compared to control: over 57 fold
  fold more 8-oxo-dG residues than mitonafide: approximately 4 fold
  [8-oxo-dG ± SD] × 10^6, 8-oxo-dG level in cellular DNA: 164.35 ± 6.39 per 10^6 dG
Calf thymus DNA (ct-DNA)
  ΔTm ct-DNA: 7.67 °C

## N-[2-N-Pyrrolidinyl)ethyl]-4-[(6-(2-(1,7-dicarba-closo-dodecaborane-1-yl)-ethylamino)hexyl)amino]-1,8-naphthalimide [Compound 61]
HepG2 cells
  fold increase in number of 8-oxo-dG residues per 10^6 dG as compared to control: > 43 fold
  fold more 8-oxo-dG residues than mitonafide: 4 fold and ~6 fold
  [8-oxo-dG ± SD] × 10^6, 8-oxo-dG level in cellular DNA: 123.92 ± 2.59 per 10^6 dG
Calf thymus DNA (ct-DNA)
  ΔTm ct-DNA: 12.33 °C
